What is called IC50 is the concentration at which inhibition is half-maximal. The low end stands for greater potency in that assay, the high end for weaker potency in that assay.

Molecules are shown by their SMILES. A value given as a limit tells only on which side of the number the result lay.

The values that follow come from US20080275032A1, “Pyridazinone compounds” (priority 2006, published 2008).

The target in this assay is HCV NS5B polymerase (Hepatitis C virus genotype 1b, UniProt P26663). Nature of the assay: biochemical. The note with it: HCV polymerase inhibition, 50 nM enzyme, 2 h at room temperature, FlashPlate [α-33P]GTP incorporation.
Sequence of HCV NS5B polymerase (P26663 2420-3010): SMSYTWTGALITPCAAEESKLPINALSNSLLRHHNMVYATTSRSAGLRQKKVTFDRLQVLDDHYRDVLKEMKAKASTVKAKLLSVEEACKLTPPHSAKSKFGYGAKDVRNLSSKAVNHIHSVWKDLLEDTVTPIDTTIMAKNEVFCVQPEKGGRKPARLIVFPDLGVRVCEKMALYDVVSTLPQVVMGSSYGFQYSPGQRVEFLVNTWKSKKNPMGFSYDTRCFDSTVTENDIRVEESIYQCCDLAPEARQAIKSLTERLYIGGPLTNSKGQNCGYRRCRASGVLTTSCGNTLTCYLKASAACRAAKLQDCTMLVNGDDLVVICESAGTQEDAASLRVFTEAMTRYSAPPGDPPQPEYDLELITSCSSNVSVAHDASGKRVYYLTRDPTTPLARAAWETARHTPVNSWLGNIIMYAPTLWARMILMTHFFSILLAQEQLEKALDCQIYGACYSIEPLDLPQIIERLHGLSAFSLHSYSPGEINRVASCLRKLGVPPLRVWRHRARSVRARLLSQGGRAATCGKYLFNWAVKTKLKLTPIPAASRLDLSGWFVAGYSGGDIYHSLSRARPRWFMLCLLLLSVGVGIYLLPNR

The molecule `CN(c1ccc2c(c1)S(=O)(=O)NC(c1c(O)c(-c3cccs3)nn(CC3(C(F)(F)F)CC3)c1=O)=N2)S(C)(=O)=O` [N-{3-[5-Hydroxy-3-oxo-6-thiophen-2-yl-2-(1-trifluoromethyl-cyclopropylmethyl)-2,3-dihydro-pyridazin-4-yl]-1,1-dioxo-1,2-dihydro-1λ^6-benzo[1,2,4]thiadiazin-7-yl}-N-methyl-methanesulfonamide] yielded an IC50 of under 100 nM.
The figure for `CS(=O)(=O)Nc1ccc2c(c1)S(=O)(=O)N=C(c1c(O)c(-c3cccs3)nn(CC3(C(F)(F)F)CC3)c1=O)N2` [N-{3-[5-Hydroxy-3-oxo-6-thiophen-2-yl-2-(1-trifluoromethyl-cyclopropylmethyl)-2,3-dihydro-pyridazin-4-yl]-1,1-dioxo-1,2-dihydro-1λ^6-benzo[1,2,4]thiadiazin-7-yl}-methanesulfonamide] is under 100 nM.
For the molecule `CCC(C)(C)c1nn(CCC(C)C)c(=O)c(C2=NS(=O)(=O)c3cc(NS(C)(=O)=O)ccc3N2)c1O` [N-{3-[6-(1,1-Dimethyl-propyl)-5-hydroxy-2-(3-methyl-butyl)-3-oxo-2,3-dihydro-pyridazin-4-yl]-1,1-dioxo-1,2-dihydro-1λ^6-benzo[1,2,4]thiadiazin-7-yl}-methanesulfonamide], the IC50 lay in the range of 100 to 1000 nM.
The figure for `CC(C)CCn1nc(CCC2OCCCO2)c(O)c(C2=Nc3ccc(NS(C)(=O)=O)cc3S(=O)(=O)N2)c1=O` [N-{3-[6-(2-[1,3]Dioxan-2-yl-ethyl)-5-hydroxy-2-(3-methyl-butyl)-3-oxo-2,3-dihydro-pyridazin-4-yl]-1,1-dioxo-1,2-dihydro-1λ^6-benzo[1,2,4]thiadiazin-7-yl}-methanesulfonamide] is 100 to 1000 nM; for `CC(C)CCn1nc(CC2CCC2)c(O)c(C2=NS(=O)(=O)c3cc(NS(C)(=O)=O)ccc3N2)c1=O` [N-{3-[6-Cyclobutylmethyl-5-hydroxy-2-(3-methyl-butyl)-3-oxo-2,3-dihydro-pyridazin-4-yl]-1,1-dioxo-1,2-dihydro-1λ^6-bnezo[1,2,4]thiadiazin-7-yl}-methanesulfonamide] it is 100 to 1000 nM.
The figure for `CC(C)CCn1nc(C2=CCCC2)c(O)c(C2=NS(=O)(=O)c3cc(NS(C)(=O)=O)ccc3N2)c1=O` [N-{3-[6-Cyclopent-1-enyl-5-hydroxy-2-(3-methyl-butyl)-3-oxo-2,3-dihydro-pyridazin-4-yl]-1,1-dioxo-1,2-dihydro-1λ^6-benzo[1,2,4]thiadiazin-7-yl}-methanesulfonamide] is under 100 nM; for `CC(C)CCn1nc(CC2=CCCC2)c(O)c(C2=NS(=O)(=O)c3cc(NS(C)(=O)=O)ccc3N2)c1=O` [N-{3-[6-Cyclopent-1-enylmethyl-5-hydroxy-2-(3-methyl-butyl)-3-oxo-2,3-dihydro-pyridazin-4-yl]-1,1-dioxo-1,2-dihydro-1λ^6-benzo[1,2,4]thiadiazin-7-yl}-methanesulfonamide] it is 100 to 1000 nM.
The figure for `CC(C)(C)c1nn(Cc2ccc(F)c(Cl)c2)c(=O)c(C2=Nc3ccc(NS(C)(=O)=O)cc3S(=O)(=O)N2)c1O` [N-{3-[6-tert-Butyl-2-(3-chloro-4-fluoro-benzyl)-5-hydroxy-3-oxo-2,3-dihydro-pyridazin-4-yl]-1,1-dioxo-1,2-dihydro-1λ^6-benzo[1,2,4]thiadiazin-7-yl}-methanesulfonamide] is 100 to 1000 nM.
Regarding `CCCS(=O)(=O)Nc1ccc2c(c1)S(=O)(=O)NC(c1c(O)c(-c3cncs3)nn(CCC(C)C)c1=O)=N2` [Propane-1-sulfonic acid {3-[5-hydroxy-2-(3-methyl-butyl)-3-oxo-6-thiazol-5-yl-2,3-dihydro-pyridazin-4-yl]-1,1-dioxo-1,2-dihydro-1λ^6-benzo[1,2,4]thiadiazin-7-yl}-amide], the IC50 is under 100 nM.
The figure for `CCCS(=O)(=O)Nc1ccc2c(c1)S(=O)(=O)N=C(c1c(O)c(-c3cccs3)nn(CCC(C)C)c1=O)N2` [Propane-1-sulfonic acid {3-[5-hydroxy-2-(3-methyl-butyl)-3-oxo-6-thiophen-2-yl-2,3-dihydro-pyridazin-4-yl]-1,1-dioxo-1,2-dihydro-1λ^6-benzo[1,2,4]thiadiazin-7-yl}-amide] is under 100 nM.
As for `CC(C)S(=O)(=O)Nc1ccc2c(c1)S(=O)(=O)NC(c1c(O)c(-c3cccs3)nn(CCC3CC3)c1=O)=N2` [Propane-2-sulfonic acid {3-[2-(2-cyclopropyl-ethyl)-5-hydroxy-3-oxo-6-thiophen-2-yl-2,3-dihydro-pyridazin-4-yl]-1,1-dioxo-1,2-dihydro-1λ^6-benzo[1,2,4]thiadiazin-7-yl}-amide], the figure is under 100 nM; as for `CC(C)CCn1nc(-c2cncs2)c(O)c(C2=Nc3ccc(NS(=O)(=O)C(C)C)cc3S(=O)(=O)N2)c1=O` [Propane-2-sulfonic acid {3-[5-hydroxy-2-(3-methyl-butyl)-3-oxo-6-thiazol-5-yl-2,3-dihydro-pyridazin-4-yl]-1,1-dioxo-1,2-dihydro-1λ^6-benzo[1,2,4]thiadiazin-7-yl}-amide], under 100 nM; as for `CC(C)CCn1nc(-c2cccs2)c(O)c(C2=NS(=O)(=O)c3cc(NS(=O)(=O)C(C)C)ccc3N2)c1=O` [Propane-2-sulfonic acid {3-[5-hydroxy-2-(3-methyl-butyl)-3-oxo-6-thiophen-2-yl-2,3-dihydro-pyridazin-4-yl]-1,1-dioxo-1,2-dihydro-1λ^6-benzo[1,2,4]thiadiazin-7-yl}-amide], under 100 nM.
As for `CC(C)CCn1nc(-c2cccs2)c(O)c(C2=Nc3ccc(NC(=O)OC(C)C)cc3S(=O)(=O)N2)c1=O` [{3-[5-Hydroxy-2-(3-methyl-butyl)-3-oxo-6-thiophen-2-yl-2,3-dihydro-pyridazin-4-yl]-1,1-dioxo-1,2-dihydro-1λ^6-benzo[1,2,4]thiadiazin-7-yl}-carbamic acid isopropyl ester], the figure is 1000 to 10000 nM.
